# Measured values: US11035008B2, “Biomarkers for cancer” (BERGENBIO ASA, priority 2015, dated 2021)
# Assays:
# pErk = pErk in AML cell panel, short term treatment, flow cytometry; format: cell-based, human
# Description: (§1) Staining of Cells for Flow Cytometry, General Protocol: • Live cells were centrifuged at 300 G for 5 minutes, washed once with PBS and centrifuged again. Cells were then fixed in 4% PFA in PBS for 10 minutes at 37° C., and resuspended in PBS. Unless processed immediately, samples were at this point stored in PBS at 4° C. (up to three weeks) or at −80° C. (for long-term storage). If intracellular epitopes were stained, cells were permebealized in 90% MeOH for 30 minutes on ice. Unless processed immediately, samples were also be stored in 90% MeOH at −20° C. for up to two months. • Further staining procedure (permebealized or non-permebealized cells): • Cells were washed 1× in PBS and blocked in blocking buffer; either PBS+0.5% BSA or PBS+1:1000 Octagam (5 mg/ml) for 15 minutes at room temperature. Thereafter, cells were incubated with primary AB at the indicated dilutions in incubation buffer (IB, PBS+0.5% BSA) for 1 hour at room temperature. Cells were then washed 3× with IB and incubated with secondary AB (conjugated to a fluorescent flurophore) at 1:1000 dilution in IB for 30 minutes at room temperature. Finally, cells were washed 3× in IB and resuspended in PBS. Cells were analyzed immediately, or stored for up to 24 hours at 4° C. before analysis. • Analysis of cells was done on a BD LSR Fortessa or a BD C6 Accuri flow cytometer, and further processing was done using FlowJo v.7.6. • All incubation steps (but not storage) were done on a spinning wheel or gentle shaker.
# (§2) The diversity of AML cells and their responses was investigated using a panel of AML cell lines and assessing their responses after BGB324-treatment.
# When investigating phospho-markers, the cells were starved overnight in the appropriate growth medium containing 0.1% FBS, pre-treated with BGB324 at 0.5 and 1 μM for one hour, and stimulated with 10% FBS for 20 minutes (to induce phosphorylation, with BGB324 present). Cells were then fixed and stained for flow cytometric analyses.
# totErk = assay: Total Erk in AML cell panel, long-term treatment, flow cytometry; format: cell-based, human
# Description: as §1, §2
# Long-term treatment was done in complete medium, without starvation. The responders were treated with 0.05, 0.1 or 0.3 μM BGB324, whereas the non-responders were treated with only a single dose of 2.5 μM BGB324. The cells were fixed after 24, 48 or 72 hours, and the samples were stored in 90% MeOH at −20° C. until all samples were harvested, and stained for flow at the same time.
# PHGDH [1] = assay: PHGDH by western blot in Mv4-11 subcutaneous xenograft tumours; format: in vivo, mice; conditions: for PHGDH in tumour lysates (western blot): Mv4-11 sub-q
# Description: Western Blot, General Protocol: • For western blot analysis, cells were lysed on ice using NP-40 lysis buffer with protease- and phosphatase inhibitors. Total protein concentration in lysates was measured using a BCA protein assay kit following the manufacturers instructions. 10% NuPAGE® Bis-Tris precast gels were loaded with 30-50 μg of protein in each well diluted in sample buffer and antioxidant. A 1:1 mix of MagicMark™ XP Western Protein Standard (Invitrogen) and SeeBlue® Plus 2 Pre-Stained Standard was used as protein standard. Gels were run at 50V for 20 min, then at 100V for 1 h 30 min. Blotting was done on ice for 1 h 30 min at 100V onto PVDF (pre-activated with MeOH) or nitrocellulose membranes. Membranes were washed in TBS-0.1% Tween-20 (TBS-T), and blocked in TBS-T 5% BSA for at least 1 h at RT. Primary ABs were added at 1:1000 in TBS-T 5% BSA (rabbit-anti-actin AB was added at 1:2000) in TBS-T 5% BSA, and membranes were incubated over night at 4° C. Membranes were then washed 3× in TBS-T, and incubated in HRP-conjugated secondary ABs at 1:5000 dilution in TBS-T 5% milk for 45 min at RT. Membranes were developed for 1 min using ECL-reagents and imaged with chemiluminescence using a Molecular Imager ChemiDoc™ XRS (BioRad). • All incubation- and washing steps were done on a roller.
# To validate the reduction of PHGDH in in vivo samples found by microarray, the PHGDH expression in tumour material from in vivo samples was investigated by western blot. […] Therefore, it was investigated at what time point PHGDH is reduced after treatment with a single high dose of BGB324 100 mg/kg.
# Tumours where the mice had been treated with a single lower dose of BGB324, 50 mg/kg, were also examined (tumour material was harvested at different time points, from 4-72 hours).
# PHGDH [2] = assay: PHGDH in CD33-positive cells, MOLM13 systemic xenograft model, flow cytometry; format: in vivo, mice; conditions: 50 mg/kg for 4 days
# Description: (§3) Material from an in vivo MOLM13 systemic model was also evaluated by flow cytometry. Expression of the previously evaluated biomarkers was examined in cells isolated from bone marrows and spleens of animals with systemic AML disease (MOLM13, inoculated for 7 days prior to treatment) treated with BGB324 at 50 mg/kg for 4 days. The spleens analysed were from the same study that was analysed by microarray, as mentioned above. The bone marrows were from an identical study that was done at a later time point to get more material for flow analyses.
# (§4) Cells isolated from spleens and bone marrows were assessed for phosphorylation of Erk, PLCγ1 and Akt, and expression of PHGDH and SLFN11. The samples were also co-stained with CD33, and biomarker expression was only evaluated in CD33-positive cells.
# SLFN11 = assay: Microarray analysis of xenograft material, SLFN11 transcript; format: in vivo, mice
# Description: Slfn11 was included in the biomarker panel following microarray analysis of Mv4-11 and MOLM13 xenograft material after BGB324-treatment.
# pAkt = pAkt in CD33-positive cells, MOLM13 systemic xenograft model, flow cytometry; format: in vivo, mice; conditions: both tissues (spleens and bone marrows), 50 mg/kg for 4 days; change not significant
# Description: as §3, §4
# Kasumi cells = assay: IC50 of BGB324 by resazurin assay, Kasumi; format: cell-based; conditions: Homo sapiens, Kasumi (non-responder)
# Description: as §2
structure (smiles),measurement,setting,value
"Nc1nc(Nc2ccc3c(c2)CC[C@@H](N2CCCC2)CC3)nn1-c1cc2c(nn1)-c1ccccc1CCC2 [BGB324, 1-(6,7-dihydro-5H-benzo[6,7]cyclohepta[1,2-c]pyridazin-3-yl)-N3-((7-(S)-pyrrolidin-1-yl)-6,7,8,9-tetrahydro-5H-benzo[7]annulene-2-yl)-1H-1,2,4-triazole-3,5-diamine]",pErk,"pErk; Kasumi, 1 hour",no significant differences in pErk
same,phosphorylation of Erk,"pErk; MOLM13, all treatment doses, 1 hour",strong and significant reduction
same,phosphorylation of Erk,"pErk; Mv4-11, all treatment doses, 1 hour",strong and significant reduction
same,pErk,"pErk; OCI-M1, 1 hour",no significant differences in pErk
same,Erk expression,"totErk; Kasumi, 2.5 μM, significant at 48 and 72 hours",reduction of Erk expression
same,Erk expression,"totErk; MOLM13, 0.3 μM, 48 and 72 hours",normalized to control-levels
same,Erk expression,"totErk; MOLM13, 0.3 μM, 24 hours","slight, but significant, reduction of Erk expression"
same,Erk expression,"totErk; Mv4-11, 0.3 μM, 24, 48 and 72 hours",gradual reduction of Erk expression
same,Erk expression,"totErk; Mv4-11, 0.3 μM, 48 and 72 hours",significantly lower than control cells
same,Erk expression,"totErk; OCI-AML5, 2.5 μM, significant at 24 and 48 hours",reduction of Erk expression
same,PHGDH in tumours (western blot),"PHGDH [1]; Mv4-11, single dose 50 mg/kg, harvested 4-72 hours",stable reduction of PHGDH was observed from 16 hours and onwards
same,PHGDH in tumours (western blot),"PHGDH [1]; Mv4-11, single dose 100 mg/kg, 6 hours after treatment",not 6 hours after treatment
same,PHGDH in tumours (western blot),"PHGDH [1]; Mv4-11, single dose 100 mg/kg, 8 hours after treatment",reduction of PHGDH observed in three parallel tumours
same,PHGDH in tumour lysates (western blot),"PHGDH [1]; 25 mg/kg BID, 50 mg/kg BID or 50 mg/kg QD, 15 days",reduction of PHGDH was observed in most of the tumours
same,PHGDH in tumour lysates (western blot),"PHGDH [1]; 100 mg/kg single dose, tumours harvested 6 h after dosing",only in one of two tumours
same,PHGDH expression,PHGDH [2]; bone marrows,significant reduction
same,PHGDH expression,PHGDH [2]; spleens,significant reduction
same,SLFN11 transcript (microarray),SLFN11; MOLM13 systemic xenograft model,not significantly reduced
same,SLFN11 transcript (microarray),"SLFN11; Mv4-11 subcutaneous xenograft, 14 days of treatment",one of the most significantly downregulated transcripts
same,SLFN11 transcript (microarray),"SLFN11; Mv4-11 xenograft, single dose 100 mg/kg, 24 hours after treatment",significantly downregulated
same,pAkt,pAkt,went down
same,IC50,Kasumi cells,1200 nM
